# Test results published in patent US7429482B2, “Screening tools for discovery of novel anabolic agents” (United States of America as represented by the Department …, priority 2005, dated 2008).
# Key:
# human IGF-1 promoter = experiment: Human IGF-1 promoter luciferase reporter assay in HepG2 cells; format: cell-based
# Excerpt: pREP4.hAR, expressing full length human AR, and pCMV.Sport.β-Gal, expressing β-galactosidase under a CMV promoter, were as described (Zhao et al., Steroids 69: 357-366, 2004). pcDNA5.rGR, expressing rat glucocorticoid receptor, was provided by Dr. Diane Robins (University of Michigan). The rARC562G vector expressing rat AR with a C562G mutation in the DBD, which results in a loss of DNA binding. The IGF-1 reporter genes pOLuc.1630, pOLuc1300, pOLuc926, pOLuc 320 were provided by Dr. Peter Rotwein (Oregon Health & Science University). These reporters expressed firefly luciferase under the control of 320 to 1630 bases upstream of the transcriptional start site of the human IGF-1 promoter as described in (Kim et al., Mol Endocrinol 5: 1964-1972, 1991). pEGX 4T-1 hAR2, expressing GST fused to the N-terminus of AR DNA-binding domain, was provided by Robert J. Matusik, Ph.D. (Vanderbuilt University Medical Center). pRL-CMV expressing Renilla luciferase was from Promega (Madison, Wis.).
# HepG2 cells (ATCC, Bethesda, Md.) were maintained in Dulbecco's modified Eagle's medium (DMEM), supplemented with 10% fetal bovine serum (FBS) and antibiotics (penicillin 100 U/ml, streptomycin 100 μg/ml). Cells were seeded at 5×10^4 cells/per well into wells of 24-well plates containing DMEM supplemented with 10% charcoal-dextran stripped FBS (CDS-FBS). The next day, cells were transfected with a total of 300 ng DNA per well using Lipofectamine Plus (Invitrogen) with plasmids as indicated in the figure legends. Three hours after transfection, cells were covered with DMEM supplemented with 10% CDS-FBS and either hormone dissolved in ethanol, or ethanol, as indicated in the figures. […] After overnight incubation, activities of firefly and Renilla luciferase were determined using the Dual Luciferase Assay system (Promega).
# Reporter plasmids expressing firefly luciferase under the control of upstream regions of the IGF-1 promoter were constructed by PCR amplification of segments of interest using primers shown in Table 2, using pOLuc-1630 as a template. The location of each amplified fragment is relative to the transcriptional start site. PCR amplification was conduced using a high fidelity Taq polymerase (Pfx, Invitrogen). PCR products were cloned into pCR2.1-TOPO TA (Invitrogen) and the sequences of the inserts were verified. Inserts were excised with Kpn I and Xho I, and were subcloned into pGL3-Promoter (Promega) at these same sites. PGL3-Promoter expresses firefly luciferase under the control of a minimal promoter.
# MAFbx mRNA = MAFbx mRNA levels in AR6 / C2C12.AR cells (qPCR); format: cell-based, mouse; conditions: dexamethasone with concurrent testosterone
# Description: (A) Rats were administered test agents as indicated in the figure for 7-days, at which time animals were sacrificed and MAFbx expression was determined in gastrocnemius muscles by qPCR. Data are mean values±SEM for at least 8 animals. * p<0.05 vs vehicle, t-test. (B) AR6 cells were seeded into 6-well plates and incubated overnight in growth medium. Medium was replaced with DMEM containing 2% horse serum followed by incubation for an additional 48 hours. Hormones or vehicle (EtOH) were added to the medium and cells were incubated overnight, at which time MAFbx mRNA levels were determined by qPCR and expressed as fold-induction versus levels in cells incubated with EtOH. Data are mean values±SEM for three determinations each performed in triplicate. * p<0.05 vs. EtOH (ANOVA). (C) Effect of testosterone on MAFbx mRNA half-life. C2C12.AR cells were incubated overnight in growth medium supplemented with testosterone or vehicle (EtOH). […] Levels of MAFbx mRNA are expressed as a percentage of those at time zero. […]
# RNA was quantified by absorbance at 260 nm. […] Relative changes in expression were determined using the 2^−ΔΔCt method. Taqman Assay on Demand probes (Applied Biosystems) were used for all assays except rat 18S RNA, which was quantified using the following Assay on Demand Probes: Forward: […] […]
# [1] = HepG2 + AR, increasing doses of testosterone
# [2] = HepG2 + AR, testosterone (FIG. 17)
smiles,measurement,setting,value
C[C@]12CC[C@H]3[C@@H](CCC4=CC(=O)CC[C@@]43C)[C@@H]1CC[C@@H]2O [testosterone],activation of the upstream promoter of the human IGF-1 gene,"human IGF-1 promoter; Hep G2 cells, FIG. 18",activated
same,"dose at which induction of luciferase expression begins, pGL3-230 (ARE1)",human IGF-1 promoter; HepG2 + AR,0.25 nM
same,induction of pGL3-32 at the lowest concentration tested,"human IGF-1 promoter; HepG2 + AR, 0.05 nM testosterone",~10 fold
same,"maximal induction and sensitivity, pGL3-13A (ARE2)",human IGF-1 promoter; [1],intermediate
same,"plateau of induction, pGL3-32 (both AREs)",human IGF-1 promoter; [1],25 fold
same,"plateau of induction, pGL3-230 (ARE1)",human IGF-1 promoter; [1],approximately 8 fold
same,"increase in luciferase expression, construct containing ARE2 (pGL3-13A)","human IGF-1 promoter; HepG2 + AR, testosterone",more than 20 fold
same,"increase in luciferase expression, reporters including ARE1 (pGL3-230, pGL3-22)","human IGF-1 promoter; HepG2 + AR, testosterone",more than 5 fold
same,induction of reporter containing both ARE1 and ARE2 (pGL3-32),"human IGF-1 promoter; HepG2 + AR, testosterone",greatest induction
same,responsiveness of reporter with 100 bases downstream of ARE2 (pGL3-25a),"human IGF-1 promoter; HepG2 + AR, testosterone",Little androgen responsiveness
same,activation of reporter p3-13a (ARE2),human IGF-1 promoter; [2],approximately 20 fold
same,activation of reporter p3-32 (both AREs),human IGF-1 promoter; [2],~30 fold
same,induction of luciferase expression with DBD mutant AR (AR-C562G),"human IGF-1 promoter; HepG2, pGL3-22, pGL3-13A, pGL3-32, testosterone 50 nM",virtually abolished
same,MAFbx mRNA level versus cells exposed to ethanol only,MAFbx mRNA,not significantly different
